Measured values reported in patent US20110125050A1, “Multiple-Electrode and Metal-Coated Probes” (THE TRUSTEES OF THE UNIVERSITY OF PENNSYLVANIA, priority 2004, published 2011).

Experiments:
GABAA receptor = test: CNP-recorded membrane potential of HT-22 cells during pharmacological stimulation (GABA, bicuculline); type: cell-based, mouse; conditions: for hyperpolarization from the RMP: 12 mM GABA in bath; for time for cell to return to its RMP: constant HBSS perfusion
Description: Recording Cellular Responses to Pharmacological Stimuli. In addition to monitoring predictable cell membrane potential changes caused by ionic enrichment, CNPs were utilized to electrically record cell responses to pharmacological stimuli. Y-aminobutyric acid (GABA), a principal inhibitory neurotransmitter in the mammalian central nervous system which acts as an agonist for the membrane-bound GABAA receptor, was administered. When GABA binds to the GABAA receptor, the cell hyperpolarizes as a result of Cl− ion influx due to the opening of the ligand-gated Cl− ion channel. However, the hyperpolarization can be blocked by perfusing cells with bicuculline (BIC), a competitive antagonist for the GABAA receptor which binds to the GABAA receptor and prevents it from opening even in the presence of GABA.
FIG. 10A illustrates how an HT-22 cell responded when GABA was added to the cell bath (12 mM GABA in bath, arrow).
Cell Culture and Preparation. […] Cells were grown in Dulbecco's Modified Eagle Medium (DMEM, high glucose) supplemented with 10% fetal bovine serum (FBS) and 1% antibiotics. The cells were plated on 12 mm cover slips 48 hrs prior to the electrophysiology measurements. The cells on the cover slips were incubated in HBSS (with calcium and magnesium) at room temperature for 10 min prior to measurements. The cover slips were subsequently placed in an open diamond perfision bath (Warner Instruments Corp., RC-22C) positioned on an upright microscope (Nikon eclipse E600FN, 40× water-immersion lens, Burleigh Gibraltar fixed-stage platform) located atop a vibration-isolation table. Cells were routinely perfised with HBSS at a flow rate of 1.0 mllmin.
Electrophysiology. Membrane potential measurements were recorded with an Axon AxoClamp-2A amplifier equipped with a headstage for high resistance electrodes (Axon HS2-XO.OlMU) and Digidata 1322A digitizer (Axon Instruments/Molecular Devices, Sunnyvale, Calif.). Experimental protocols were controlled and data acquired by a personal computer using the Clampex 8.2 software (Axon Instruments). CNPs were inserted into a standard electrode holder until the metal wire of the holder came in contact with the inner carbon film of the CNP. A slight positive pressure was applied through the holder's perfixion port to keep external solution from filling the hollow CNP by capillarity. A micromanipulator (Narishige MHW-3) was used to manipulate and position the CNP electrodes during the electrophysiology measurements. […] Recorded electrical measurements were not adjusted to compensate for differences in extracellular and intracellular junction potentials.

HT-22 cells = test: CNP-recorded membrane potential of HT-22 cells during ionic (K+) enrichment; type: cell-based, mouse; conditions: for depolarization: KCl added to bath
Description: Because the cell membrane is highly permeable to potassium ions (K^+), an increase or decrease in extracellular K+ concentration will, respectively, cause a resting cell to depolarize (membrane potential becoming more positive) or hyperpolarize (membrane potential becoming more negative). Utilizing CNPs, variations in membrane potential were monitored over tens of minutes. FIG. 8A is a recording of membrane potential from an HT-22 cell during perfusion intervals with normal HBSS and K+-enriched HBSS (additional 5 mM K^+). […] After approximately 2 min at higher extracellular K^+, the cell was perfused with normal HBSS and the cell slowly returned to its RMP.
Next, a CNP was used to measure changes in membrane potential during repetitive extracellular administration of KCl [FIG. 8B]. After penetrating the cell, as indicated by the arrow in FIG. 8B, the CNP measured a stable RMP under normal HBSS perfusion (Emp=−68 mV). […] Under constant perfusion in normal HBSS, the membrane potential returned to its original value after […]. The results were reproducible with high fidelity.
FIG. 8C is a representation of potential variations as a function of time during the administration of HBSS and the varied K+-enrichment of HBSS (additional 5 and 15 mM K^+). […] As normal HBSS perfusion brought the bath back to its initial K+ concentration, the cell returned to its RMP in ˜90 seconds.
Lastly, CNPs were used to electrically record a cell response to sequential pharmacological stimulation and ionic enrichment. FIG. 10B represents the opposing membrane responses to such stimuli over time. […] Once the GABA was washed away under constant HBSS perfision, the cell returned to its RMP in 60 sec. […] As excess KCl was washed away under constant HBSS perfusion, the cell returned again to its RMP after 60 sec.
Cell Culture and Preparation. The mouse hippocampal cell line HT-22 was kindly provided by Dr. David Schubert (The Salk Institute, San Diego, Calif.). Cells were grown in Dulbecco's Modified Eagle Medium (DMEM, high glucose) supplemented with 10% fetal bovine serum (FBS) and 1% antibiotics. The cells were plated on 12 mm cover slips 48 hrs prior to the electrophysiology measurements. The cells on the cover slips were incubated in HBSS (with calcium and magnesium) at room temperature for 10 min prior to measurements. The cover slips were subsequently placed in an open diamond perfision bath (Warner Instruments Corp., RC-22C) positioned on an upright microscope (Nikon eclipse E600FN, 40× water-immersion lens, Burleigh Gibraltar fixed-stage platform) located atop a vibration-isolation table. Cells were routinely perfised with HBSS at a flow rate of 1.0 mllmin.
Electrophysiology. Membrane potential measurements were recorded with an Axon AxoClamp-2A amplifier equipped with a headstage for high resistance electrodes (Axon HS2-XO.OlMU) and Digidata 1322A digitizer (Axon Instruments/Molecular Devices, Sunnyvale, Calif.). Experimental protocols were controlled and data acquired by a personal computer using the Clampex 8.2 software (Axon Instruments). CNPs were inserted into a standard electrode holder until the metal wire of the holder came in contact with the inner carbon film of the CNP. A slight positive pressure was applied through the holder's perfixion port to keep external solution from filling the hollow CNP by capillarity. A micromanipulator (Narishige MHW-3) was used to manipulate and position the CNP electrodes during the electrophysiology measurements. All the electrical measurements were carried out versus an AgIAgCl reference electrode submerged in HBSS in discontinuous current clamp @CC) mode, at zero current, with no capacitance compensation. The CNP potential was nulled (+I-2 mV) with the amplifier offset potential during immersion in HBSS before all electrical measurements. Recorded electrical measurements were not adjusted to compensate for differences in extracellular and intracellular junction potentials.

Compound | hyperpolarization from the RMP (GABAA receptor; RMP -57 mV, FIG. 10B) [mV] | hyperpolarization from the RMP (GABAA receptor; normal HBSS perfusion, RMP -53 mV, FIG. 10A) [mV] | time for cell to return to its RMP (GABAA receptor; after 12 mM GABA washed away, FIG. 10B) [s] | time for cell to return to its RMP (GABAA receptor; after 12 mM GABA, FIG. 10A) [s] | depolarization (HT-22 cells; additional 5 mM K+, RMP -57 mV, FIG. 8C) [mV] | depolarization (HT-22 cells; additional 15 mM K+, RMP -57 mV, FIG. 8C) [mV] | depolarization (HT-22 cells; additional 15 mM K+, after GABA washout, RMP -57 mV, FIG. 10B) [mV] | depolarization (HT-22 cells; additional 25 mM K+, RMP -68 mV, FIG. 8B) [mV] | time for cell to return to its RMP (HT-22 cells; after additional 5 mM K+, normal HBSS perfusion, FIG. 8C) [s] | time for cell to return to its RMP (HT-22 cells; after additional 15 mM K+, FIG. 8C) [s] | time for cell to return to its RMP (HT-22 cells; after additional 15 mM K+, constant HBSS perfusion, FIG. 10B) [s]
NCCCC(=O)O [GABA, Y-aminobutyric acid] | 12 | 10 | 60 | 30 | – | – | – | – | – | – | –
[Cl-].[K+] [KCl, Potassium chloride] | – | – | – | – | 10 | 30 | 25 | 40 | ~90 | ~90 | 60
